The values below are quoted from earlier work in patent publication US9102664B2, “Process for the preparation of triazole antifungal drug, its intermediates and polymorphs thereof” (MSN Laboratories Limited, priority 2011, dated 2015).

The conditions of data set [1]: under the conditions investigated in WO 99/18097.
For data set [2] the following is noted: produced per U.S. Pat. No. 5,661,151 using 6N HCl in methanol.

As to `CC[C@@H]([C@H](C)O)n1ncn(-c2ccc(N3CCN(c4ccc(OC[C@@H]5CO[C@@](Cn6cncn6)(c6ccc(F)cc6F)C5)cc4)CC3)cc2)c1=O` [form II, posaconazole], the “stability of crystalline form” value in data set [1] is recorded as “unstable”.

`CC[C@@H]([C@H](C)O)n1ncn(-c2ccc(N3CCN(c4ccc(OC[C@@H]5CO[C@@](Cn6cncn6)(c6ccc(F)cc6F)C5)cc4)CC3)cc2)c1=O` [Amorphous form of posaconazole, posaconazole]: the “stability of amorphous form” value in data set [2] was “not stable”.
